Laboratory results taken from US20100075965A1, “PI3 KINASE INHIBITORS AND METHODS OF THEIR USE” (Novartis AG, priority 2006, published 2010).
Where two headings read alike, the source gives them in different places.

Tests used:
A2780 cells = test: Viability assay in A2780 (Cell Titer Glo); assay type: cell-based, human; settings: Homo sapiens
Outline: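 EC50 values come from Cell Titer Glo luminescence after 72 hrs of compound exposure at 37° C, run in duplicate. A2780 cells were plated at 1,000 per well in DMEM with 10% FBS and dosed with 3-fold serial dilutions.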

[1] = tested on: pSer473-Akt in A2780 cells; test: pSer473 Akt assay to monitor PI3K pathway in A2780 cells (MSD); assay type: cell-based; settings: Homo sapiens
Outline: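 EC50 is derived from percent inhibition of Akt Ser473 phosphorylation, normalised to total Akt and compared with DMSO-only wells, read by MSD immunoassay. Lysates came from A2780 cells plated overnight at 15,000/well and exposed to compound for one hour at 37 °C.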

PI3 K Alpha = PI3 K Alpha (Homo sapiens, UniProt P42336); test: PI3 kinase phosphorylation assays (homogenous solution phase, one step solid phase, ATP depletion/KinaseGlo); assay type: biochemical
Sequence of PI3 K Alpha (P42336 whole entry): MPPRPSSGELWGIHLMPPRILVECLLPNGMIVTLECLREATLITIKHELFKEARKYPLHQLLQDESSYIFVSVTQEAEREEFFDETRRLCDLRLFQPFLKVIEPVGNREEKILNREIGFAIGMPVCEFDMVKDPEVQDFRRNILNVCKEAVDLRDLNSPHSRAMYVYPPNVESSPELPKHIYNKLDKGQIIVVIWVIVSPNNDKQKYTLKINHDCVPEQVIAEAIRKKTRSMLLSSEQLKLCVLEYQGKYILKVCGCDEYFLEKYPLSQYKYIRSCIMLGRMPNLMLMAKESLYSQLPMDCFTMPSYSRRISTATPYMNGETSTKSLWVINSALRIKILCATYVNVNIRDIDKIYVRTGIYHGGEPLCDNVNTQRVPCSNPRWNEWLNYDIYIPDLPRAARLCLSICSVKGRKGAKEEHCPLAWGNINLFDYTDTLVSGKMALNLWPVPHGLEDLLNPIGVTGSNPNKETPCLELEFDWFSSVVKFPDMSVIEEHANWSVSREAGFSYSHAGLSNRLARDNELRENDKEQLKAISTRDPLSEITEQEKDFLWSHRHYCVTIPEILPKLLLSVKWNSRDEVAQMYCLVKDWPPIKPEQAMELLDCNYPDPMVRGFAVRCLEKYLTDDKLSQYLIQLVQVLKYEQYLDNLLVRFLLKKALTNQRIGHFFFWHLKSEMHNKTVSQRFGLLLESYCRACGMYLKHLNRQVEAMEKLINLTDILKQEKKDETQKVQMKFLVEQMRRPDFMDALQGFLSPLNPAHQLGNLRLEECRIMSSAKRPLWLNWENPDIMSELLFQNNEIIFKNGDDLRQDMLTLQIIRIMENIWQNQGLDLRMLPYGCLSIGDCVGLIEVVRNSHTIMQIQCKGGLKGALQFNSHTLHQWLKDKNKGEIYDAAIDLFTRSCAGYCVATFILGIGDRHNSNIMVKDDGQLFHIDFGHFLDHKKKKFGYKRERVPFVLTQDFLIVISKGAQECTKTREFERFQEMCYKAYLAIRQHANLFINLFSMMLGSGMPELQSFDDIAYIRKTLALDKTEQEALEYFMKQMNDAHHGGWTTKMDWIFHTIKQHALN
Sequence of PI3 K Alpha (P27986 whole entry partner): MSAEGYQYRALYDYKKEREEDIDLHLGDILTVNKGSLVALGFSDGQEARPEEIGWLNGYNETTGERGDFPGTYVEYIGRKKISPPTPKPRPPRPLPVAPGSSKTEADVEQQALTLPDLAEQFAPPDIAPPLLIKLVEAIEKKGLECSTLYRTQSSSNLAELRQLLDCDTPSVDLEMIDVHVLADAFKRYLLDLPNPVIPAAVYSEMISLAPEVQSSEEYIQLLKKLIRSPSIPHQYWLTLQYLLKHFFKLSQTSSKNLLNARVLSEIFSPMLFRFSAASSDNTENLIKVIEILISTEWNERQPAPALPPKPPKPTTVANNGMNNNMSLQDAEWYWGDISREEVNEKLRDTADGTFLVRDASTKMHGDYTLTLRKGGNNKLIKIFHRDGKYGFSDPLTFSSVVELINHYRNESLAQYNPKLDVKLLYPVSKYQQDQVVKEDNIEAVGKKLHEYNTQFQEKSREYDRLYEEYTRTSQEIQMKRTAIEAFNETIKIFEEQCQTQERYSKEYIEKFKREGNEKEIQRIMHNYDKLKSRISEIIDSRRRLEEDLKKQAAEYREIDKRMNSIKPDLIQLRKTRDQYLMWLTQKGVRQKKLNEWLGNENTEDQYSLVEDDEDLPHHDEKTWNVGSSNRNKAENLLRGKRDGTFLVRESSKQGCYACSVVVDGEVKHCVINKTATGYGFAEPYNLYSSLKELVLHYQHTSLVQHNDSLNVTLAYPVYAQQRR

[2] = A2780 cells, read-out: A2780 Cell prolif. EC50
[3] = A2780 cells, read-out: A2780 pAKT 473 EC50

| EC50 (A2780 cells; [2]) | EC50 [1, 3] | IC50 (PI3 K Alpha; read-out: PI3K Alpha IC50) | Compound | EC50 (A2780 cells; A2780, read-out: A2780 Cell prolif. EC50) | EC50 ([1]; A2780, read-out: A2780 pAKT 473 EC50) | IC50 (PI3 K Alpha) |
| --- | --- | --- | --- | --- | --- | --- |
| < 10 µM | < 1000 nM | < 1000 nM | Nc1ncc(-c2ccc3nc(NC(=O)CCO)cn3c2)cc1C(F)(F)F [Example 205, N-(6-(6-amino-5-(trifluoromethyl)pyridin-3-yl)imidazo[1,2-a]pyridin-2-yl)-3-hydroxypropanamide] | – | – | – |
| < 10 µM | < 1000 nM | < 1000 nM | CCN1CCN(CCCC(=O)Nc2cn3cc(-c4cnc(N)c(C(F)(F)F)c4)ccc3n2)CC1 [Example 206, N-(6-(6-amino-5-(trifluoromethyl)pyridin-3-yl)imidazo[1,2-a]pyridin-2-yl)-4-(4-ethylpiperazin-1-yl)butanamide] | – | – | – |
| < 10 µM | < 1000 nM | < 1000 nM | CC(=O)Nc1cn2cc(-c3cnc(N)c(C)c3)ccc2n1 [Example 208, N-(6-(6-amino-5-methylpyridin-3-yl)imidazo[1,2-a]pyridin-2-yl)acetamide] | – | – | – |
| < 10 µM | < 10000 nM | < 1000 nM | CC(=O)Nc1nc2ccc(-c3cnc(N)c(C(F)(F)F)c3)cn2c1C#CCN1CCOCC1 [Example 213, N-(6-(6-amino-5-(trifluoromethyl)pyridin-3-yl)-3-(3-morpholino-prop-1-ynyl)imidazo[1,2-a]pyridin-2-yl)acetamide] | – | – | – |
| < 10 µM | < 10000 nM | < 1000 nM | NCC(=O)Nc1cn2cc(-c3cnc(N)c(C(F)(F)F)c3)ccc2n1 [Example 215, 2-amino-N-(6-(6-amino-5-(trifluoromethyl)pyridin-3-yl)imidazo[1,2-a]pyridin-2-yl)acetamide] | – | – | – |
| < 10 µM | < 1000 nM | < 1000 nM | CCN(CC)C(=O)c1cc(-c2ccc3nc(NC(C)=O)cn3c2)cnc1N [Example 218, 5-(2-acetamido-imidazo[1,2-a]pyridin-6-yl)-2-amino-N,N-diethyl-nicotinamide] | – | – | – |
| < 10 µM | < 10000 nM | < 1000 nM | CC(=O)Nc1cn2cc(-c3cnc(N)c(C#N)c3)ccc2n1 [Example 235, N-(6-(6-amino-5-cyanopyridin-3-yl)imidazo[1,2-a]pyridin-2-yl)acetamide] | – | – | – |

Continued, compound first:

| Compound | EC50 (A2780 cells; [2]) | EC50 [1, 3] | IC50 (PI3 K Alpha; read-out: PI3K Alpha IC50) | EC50 (A2780 cells; A2780, read-out: A2780 Cell prolif. EC50) | EC50 ([1]; A2780, read-out: A2780 pAKT 473 EC50) | IC50 (PI3 K Alpha) |
| --- | --- | --- | --- | --- | --- | --- |
| COC(=O)CCCC(=O)Nc1cn2nc(-c3cnc(N)c(C(F)(F)F)c3)ccc2n1 [Example 132, methyl 5-(6-(6-amino-5-(trifluoromethyl)pyridin-3-yl)imidazo[1,2-b]pyridazin-2-ylamino)-5-oxopentanoate] | < 10 µM | < 1000 nM | < 1000 nM | – | – | – |
| Nc1ncc(-c2ccc3nc(NC(=O)CN4CCCCC4)cn3n2)cc1C(F)(F)F [Example 133, N-(6-(6-amino-5-(trifluoromethyl)pyridin-3-yl)imidazo[1,2-b]pyridazin-2-yl)-2-(piperidin-1-yl)acetamide] | < 10 µM | < 1000 nM | < 1000 nM | – | – | – |
| CC(C)(C)OC(=O)NCC(=O)Nc1cn2nc(-c3cnc(N)c(C(F)(F)F)c3)ccc2n1 [Example 135, tert-butyl 2-(6-(6-amino-5-(trifluoromethyl)pyridin-3-yl)imidazo[1,2-b]pyridazin-2-ylamino)-2-oxoethylcarbamate] | < 10 µM | < 1000 nM | < 1000 nM | – | – | – |
| CC(=O)Nc1cn2nc(-c3cnc(N)c(C(=O)O)c3)ccc2n1 [Example 136, 5-(2-acetamido-imidazo[1,2-b]pyridazin-6-yl)-2-aminonicotinic acid] | < 25 µM | < 25000 nM | < 1000 nM | – | – | – |
| CCOc1nc(-c2ccc3nc(NC(C)=O)cn3n2)cnc1N [Example 184, N-(6-(5-amino-6-ethoxypyrazin-2-yl)imidazo[1,2-b]pyridazin-2-yl)acetamide] | < 10 µM | < 1000 nM | < 1000 nM | – | – | – |
| Nc1ncc(-c2ccc3nc(NC(=O)c4ccc(-n5ccnc5)cc4)cn3c2)cc1C(F)(F)F [Example 187, N-(6-(6-amino-5-(trifluoromethyl)pyridin-3-yl)imidazo[1,2-a]pyridin-2-yl)-4-(1H-imidazol-1-yl)benzamide] | < 10 µM | < 1000 nM | < 1000 nM | – | – | – |
| CC(=O)Nc1cn2cc(-c3cnc(N)c(Cl)c3)ccc2n1 [Example 188, N-(6-(6-amino-5-chloropyridin-3-yl)imidazo[1,2-a]pyridin-2-yl)acetamide] | < 10 µM | < 1000 nM | < 1000 nM | – | – | – |
| CC(=O)Nc1cn2cc(-c3cnc(N)c(C(F)(F)F)c3)cc(F)c2n1 [Example 190, N-(6-(6-amino-5-(trifluoromethyl)pyridin-3-yl)-8-fluoroimidazo [1,2-a]pyridin-2-yl)acetamide] | < 10 µM | < 1000 nM | < 1000 nM | – | – | – |
| C/C=C/c1c(NC(C)=O)nc2ccc(-c3cnc(N)c(C(F)(F)F)c3)cn12 [Example 193, (E)-N-(6-(6-amino-5-(trifluoromethyl)pyridin-3-yl)-3-(prop-1-enyl)imidazo[1,2-a]pyridin-2-yl)acetamide] | < 10 µM | < 10000 nM | < 1000 nM | – | – | – |
| CC(=O)Nc1cn2c(C)c(-c3cnc(N)c(C(F)(F)F)c3)ccc2n1 [Example 194, N-(6-(6-amino-5-(trifluoromethyl)pyridin-3-yl)-5-methylimidazo[1,2-a]pyridin-2-yl)acetamide] | < 10 µM | < 10000 nM | < 1000 nM | – | – | – |
| CC(=O)Nc1cn2cc(-c3cnc(N)c(C=O)c3)ccc2n1 [Example 195, N-(6-(6-amino-5-formylpyridin-3-yl)imidazo[1,2-a]pyridin-2-yl)acetamide] | < 10 µM | < 1000 nM | < 1000 nM | – | – | – |
| COCCOc1nc(-c2ccc3nc(NC(=O)COC)cn3c2)cnc1N [Example 196, N-(6-(5-amino-6-(2-methoxyethoxy)pyrazin-2-yl)imidazo[1,2-a]pyridin-2-yl)-2-methoxyacetamide] | < 10 µM | < 1000 nM | < 1000 nM | – | – | – |
| CC(=O)Nc1cn2cc(-c3cnc(N)c(/C=N/N(C)C)c3)ccc2n1 [Example 204, (E)-N-(6-(6-amino-5-((2,2-dimethylhy-drazono)methyl)pyridin-3-yl)imidazo[1,2-a]pyridin-2-yl)acetamide] | < 10 µM | < 1000 nM | < 1000 nM | – | – | – |
| CC(=O)Nc1nc2ccc(-c3cnc(N)c(C(F)(F)F)c3)cn2c1C#Cc1ccccn1 [Example 241, N-(6-(6-amino-5-(trifluoromethyl)pyridin-3-yl)-3-(pyridin-2-ylethnyl)imi-dazo[1,2-a]pyridin-2-yl)acetamide] | – | – | – | < 10 µM | < 10000 nM | < 1000 nM |
